{"source": "patent US20070265164A1", "about": "“Active Substances for Increasing Pathogenic Defense in Plants and Methods for the Detection Thereof” (Bayer Cropscience GmbH, priority 2004, published 2007)", "assay_type_in_all_cases": "in vivo", "parameters_in_all_cases": "fold induction: dose or concentration left out as unconfirmed", "key": {"[1]": {"tested_on": "Contig5023_at, Class III chitinase", "assay": "GEP, barley DNA chip, probe set 5.3", "details": "Hordeum vulgare, topical, read-out: Expression value, 5.3 Contig5023_at", "protocol": "(§1) Barley plants (cv. Baronesse) were grown in compost-filled pots (diameter: 10 cm) for 10 days in a controlled-environment cabinet under defined light, humidity and temperature conditions (white light, 70% atmospheric humidity, 24° C.). At the time of spray application, the seedlings were approximately 15 cm in size. The test substances selected in this example were molecules which differ markedly in their structure and which have a well documented pronounced safener effect, and other molecules which are known from the literature to have an effect on plant stress and pathogen tolerance (Table 1). The substances were prepared as stock solutions in DMSO (dimethyl sulfoxide) at c=10 mg/ml). This was used for preparing dilutions in water supplemented with 0.2% Agrotin (comprises polyvinyl alcohol, silicones, polysaccharides and pH regulators, manufacturer: Bayer CropScience AG, Monheim, Germany), as wetter, to give the application rates shown in the table. The amount of liquid for the spray application was 800 μl per pot, corresponding to 800 l/ha. For each 800 μl of spray mixture, 16 μl of EC premix: diacetone alcohol=1:6 were additionally added as formulation auxiliaries. The substances listed in Table 1 were applied to the leaves by means of a pneumatic spray pistol. Each substance was sprayed as 2 dosages, and all experiments were carried out as replicates (2 pots per substance). Sprayings with blank formulation without active ingredient were carried out as controls. After 6 hours, the leaves were harvested, frozen in liquid nitrogen and stored at −80° C. until further use. The labeled RNA probes for the DNA chip hybridization were prepared as described in the protocols (Expression Analysis, Technical Manual) from Affymetrix (Affymetrix Inc., 3380 Central Expressway, Santa Clara, Calif., USA). First, total RNA was isolated from in each case 500 mg of the harvested leaves. In each case 10 μg of total RNA was used for the first-strand and second-strand cDNA synthesis. The cDNA was amplified with T7 polymerase and simultaneously labeled with biotin-UTP. In each case, 20 μg of this biotinylated cDNA was employed for the hybridization of the barley genome array (Gene Chip Barleyl, order No.: 511012) from Affymetrix. This DNA microarray comprises DNA sequences of 22 840 genes which are composed of a total of 400 000 EST sequences. Thereafter, the DNA microarrays were washed in the Affymetrix Fluidics Station, stained with streptavidin/phycoerythrin (Molecular Probes, P/N S-866) and scanned with the matching Agilent Laser Scanner (Agilent Gene Array Scanner). The fluorescent data obtained were analyzed with the software Microarray Suite 5 from Affymetrix. After the quality had been checked, all DNA chip analyses were stored in a database. To determine the relative expression values for genes (induction factors, repression factors), test and control chips were compared with each other, and the scoring function set by the Affymetrix software was used as the basis. The 2 biological replications of one experiment were compared in each case with 2 control chips (blank formulation), and the 4 expression values obtained for each gene were used for calculating the median. These medians are shown in the results tables as induction factors. Similarity comparisons of expression profiles from different experiments and cluster analyses were carried out using the software GeneMaths 1.5 from Applied Maths (Applied Maths, Keistraat 120, 9830 Sint-Martens-Latem, Belgium).\n(§2) Gene groups from specific metabolic pathways and signal transduction chains were put together by key word search in the annotations, of the genes, which were also provided by Affymetrix, and by Blast analyses (homology comparisons) of the DNA target sequences, i.e. of the positive sequence (identified on the basis of a modified expression profile) identified on the DNA chip, using gene sequences from other organisms, preferably plant organisms, with characterized functions. […]"}, "[2]": {"tested_on": "Contig1737_at, Probable lipoxygenase", "assay": "GEP, barley DNA chip, probe set 1.15", "details": "Hordeum vulgare, topical, read-out: Expression value, 1.15 Contig1737_at", "protocol": "as §1, §2"}, "[3]": {"tested_on": "Contig2088_s_at, Bowman-Birk type trypsin inhibitor", "assay": "GEP, barley DNA chip, probe set 2.1", "details": "Hordeum vulgare, topical, read-out: Expression value, 2.1 Contig2088_s_at", "protocol": "as §1, §2"}, "[4]": {"tested_on": "Contig88_x_at, Putative proteinase inhibitor", "assay": "GEP, barley DNA chip, probe set 2.3", "details": "Hordeum vulgare, topical, read-out: Expression value, 2.3 Contig88_x_at", "protocol": "as §1, §2"}, "[5]": {"tested_on": "Contig2330_x_at, 12-oxophytodienoic acid reductase", "assay": "GEP, barley DNA chip, probe set 1.19", "details": "Hordeum vulgare, topical, read-out: Expression value, 1.19 Contig2330_x_at", "protocol": "as §1, §2"}, "[6]": {"tested_on": "Contig9556_at, 12-oxophytodienoate reductase 3", "assay": "GEP, barley DNA chip, probe set 1.8", "details": "Hordeum vulgare, topical, read-out: Expression value, 1.8 Contig9556_at", "protocol": "as §1, §2"}, "[7]": {"tested_on": "Contig2305_at, Methyljasmonate inducible lipoxygenase", "assay": "GEP, barley DNA chip, probe set 1.14", "details": "Hordeum vulgare, topical, read-out: Expression value, 1.14 Contig2305_at", "protocol": "as §1, §2"}, "[8]": {"tested_on": "Contig5369_at, Pathogen-related protein", "assay": "GEP, barley DNA chip, probe set 4.2", "details": "Hordeum vulgare, topical, read-out: Expression value, 4.2 Contig5369_at", "protocol": "as §1, §2"}, "[9]": {"tested_on": "Contig6194_a_at, 12-oxophytodienoic acid reductase", "assay": "GEP, barley DNA chip, probe set 1.7", "details": "Hordeum vulgare, topical, read-out: Expression value, 1.7 Contig6194_a_at", "protocol": "as §1, §2"}, "[10]": {"tested_on": "HI02E21u_s_at, Lipoxygenase (EC 1.13.11.12)", "assay": "GEP, barley DNA chip, probe set 1.2", "details": "Hordeum vulgare, topical, read-out: Expression value, 1.2 HI02E21u_s_at", "protocol": "as §1, §2"}, "[11]": {"tested_on": "Contig2337_at, 12-oxophytodienoate reductase (OPR1)", "assay": "GEP, barley DNA chip, probe set 1.20", "details": "Hordeum vulgare, topical, read-out: Expression value, 1.20 Contig2337_at", "protocol": "as §1, §2"}, "[12]": {"tested_on": "Contig12574_at, Putative lipoxygenase", "assay": "GEP, barley DNA chip, probe set 1.11", "details": "Hordeum vulgare, read-out: Expression value, 1.11 Contig12574_at", "protocol": "as §1, §2"}, "[13]": {"tested_on": "Contig3097_at, Allene oxide synthase", "assay": "GEP, barley DNA chip, probe set 1.3", "details": "Hordeum vulgare, topical, read-out: Expression value, 1.3 Contig3097_at", "protocol": "as §1, §2"}, "[14]": {"details": "barley leaves 6 h after spray application, rates of Table 1 (S7 500), median induction factor vs control"}}}
{"smiles": "O=C(O)c1cc(Cl)nc(Cl)c1", "note": "[S9]", "values": [{"measurement": "fold induction at 150 g/ha", "setting": "[1]; 6 h", "value": 4.56}, {"measurement": "fold induction at 150 g/ha", "setting": "[2]; 6 h", "value": 1}, {"measurement": "fold induction at 150 g/ha", "setting": "[3]; 6 h", "value": 2.36}, {"measurement": "fold induction at 150 g/ha", "setting": "[4]; 6 h", "value": 4.59}, {"measurement": "fold induction at 150 g/ha", "setting": "[5]; 6 h", "value": 1}, {"measurement": "fold induction at 150 g/ha", "setting": "[6]; 6 h", "value": 1}, {"measurement": "fold induction at 150 g/ha", "setting": "[7]; 6 h", "value": 12.6}, {"measurement": "fold induction at 150 g/ha", "setting": "[8]; 6 h", "value": 1}, {"measurement": "fold induction at 150 g/ha", "setting": "[9]; 6 h", "value": 1}, {"measurement": "fold induction at 150 g/ha", "setting": "[10]; 6 h", "value": 3.03}, {"measurement": "fold induction at 150 g/ha", "setting": "[11]; 6 h", "value": 1}, {"measurement": "fold induction at 150 g/ha", "setting": "[12]; 6 h", "value": 1}, {"measurement": "fold induction at 150 g/ha", "setting": "[13]; 6 h", "value": 1}]}
{"smiles": "O=C(O)c1cc(Cl)cc(Cl)c1O", "note": "[S10]", "values": [{"measurement": "fold induction", "setting": "[1]; [14]", "value": 1}, {"measurement": "fold induction", "setting": "[2]; [14]", "value": 1}, {"measurement": "fold induction", "setting": "[3]; [14]", "value": 2.41}, {"measurement": "fold induction", "setting": "[4]; [14]", "value": 4.41}, {"measurement": "fold induction", "setting": "[5]; [14]", "value": 1}, {"measurement": "fold induction", "setting": "[6]; [14]", "value": 1}, {"measurement": "fold induction", "setting": "[7]; [14]", "value": 18.1}, {"measurement": "fold induction", "setting": "[8]; [14]", "value": 1}, {"measurement": "fold induction", "setting": "[9]; [14]", "value": 1}, {"measurement": "fold induction", "setting": "[10]; [14]", "value": 4.66}, {"measurement": "fold induction", "setting": "[11]; [14]", "value": 1}, {"measurement": "fold induction", "setting": "[12]; [14]", "value": 1}, {"measurement": "fold induction", "setting": "[13]; [14]", "value": 1}]}
